Where two headings read alike, the source gives them in different places.
Assays:
[1] = Yellowing of DHA in aprotic and protic solvents; assay type: physicochemical
Source text: The various solvents selected are disclosed in Table 8.
The yellowing of DHA increased drastically when aprotic aromatic compounds were present along with DHA due to radical coupling between DHA and such solvents comprising aromatic compounds.
The decomposition of DHA was low at room temperature (RT) and at high temperature, wherein, the small amount of DHA decompose to form a radical and couple by themselves to form traces high of epsilon chromophoric products and if aromatic aprotic solvents are present along with DHA in solution they couple to form a longer chromophore with high intensity yellow color in water.

[2] = Solubility of DHA in aprotic and protic solvents
Source text: In order to choose the suitable solvent for preparing non-yellowing DHA composition, the different possible protic, aprotic solvents were selected and evaluated individually and also as their suitable mixture.
In case of aprotic solvents, it was selected based on its compatibility with other ingredients present in the end-user products. Further, the regulatory requirement was also considered as an important element in choosing preferred aprotic solvent for preparing non-yellowing/reduced-yellowing DHA composition of the present application. The high content of DHA can be introduced in the solvent by dispersing or dissolving the DHA in their corresponding aprotic solvents. […] The various solvents selected are disclosed in Table 8.
Further, the applicants have evaluated various protic solvents to understand their ability to render non-yellowing/reduced-yellowing DHA composition for employing in various end-user products that are aqueous in nature.

E. coli (ATCC 8739) = test: Synergism study (MIC, synergy index) of DHA with aprotic solvents: E. coli; assay type: cell-based
Protocol: (§1) Tryptic Soy Broth (TSB) media was used for bacterial evaluations and Yeast Malt Broth (YMB) for fungal evaluations. The compounds DHA or the aprotic solvents were added to the media and serially diluted. After serially diluting the media, 100 μl of a suspension of the testing bacteria or fungi were added to a final concentration of approximately 106 −5 CFU/ml. The inoculated media was then incubated at 32° C. for 2-5 days for bacteria or at 28° C. for 3-7 days for fungi.
(§2) The lowest concentration of each compound or mixtures to inhibit visible growth was taken as the minimum inhibitory concentration (MIC). The MIC's were taken as end points of activity. End points for the mixtures of compound A (DHA) and compound B (aprotic solvent) were then compare with the end points for the pure active ingredient alone.
(§3) Synergism was determined by a commonly used and accepted method described by Kull A. C.; Eisman, P. C.; Sylwestrowicz, H. D. and Mayer, R. L. 1961. […]

[3] = tested on: A. brasilensts (ATCC 16404); test: Synergism study (MIC, synergy index) of DHA with aprotic solvents: A. brasilensts; assay type: cell-based
Protocol: as §1, §2, §3

S. aureus (ATCC 6538) = test: Synergism study (MIC, synergy index) of DHA with aprotic solvents: S. aureus; assay type: cell-based
Protocol: as §1, §2, §3

Bacterial Mixture = test: Preservative Efficacy Test in Lamellar Prolipid formulation: Bacterial Mixture; assay type: cell-based
Source text: (§4) The detailed composition of these end-user products comprising DHA solubilized Propyelene Carbonate is described below in detail.

Mold Mixture = test: Preservative Efficacy Test in Lamellar Prolipid formulation: Mold Mixture; assay type: cell-based
Source text: as §4

S. aureus = test: Preservative Efficacy Test in Lamellar Prolipid formulation: S. aureus; assay type: cell-based
Source text: as §4

[4] = DHA in the named aprotic solvent, RT, 1 month
[5] = DHA in the named protic polar solvent (Table 9)
[6] = DHA in the named protic polar solvent, RT

In the case of COC(=O)C(C)O (stereo not shown) [Methyl lactate], the “Yellowing at RT For 1 month” value [1, 4] is reported as “No yellow”.

For CCCCCCC(O)CO (stereo not shown) [Capryl glycol], the “% of DHA soluble” value [2, 5] was 2.5% and the “Yellowing at RT For 1 month” value [1, 6] was “Yellow in 30 days”.

In the case of C1CCCCC1 [Cyclohexane], the “% of DHA soluble” value [2] is reported as 3-5%, the “Yellowing At 50° C.” value ([1]; DHA in the named aprotic solvent, 50° C., figures in brackets = Gardner color) is reported as “Slight yellowing (2-3)” and the “Yellowing at RT For 1 month” value [1, 4] is reported as “No yellowing”.

With Phenethylpropanol the “% of DHA soluble” value [2] was 8%, the Comments ([2]; pH 8) was “Crystallize” and the “Yellowing at RT For 1 month” value [1, 6] was “yellow on day one”.

For CC1COC(=O)O1 (stereo not shown) [Propylene carbonate, propylene carbonate], the MIC (E. coli (ATCC 8739); Escherichia coli, ATCC8739, read-out: Solvent (B): MIC of solvent acting alone (QB)) was 6250 µg/mL, the MIC ([3]; read-out: Solvent (B): MIC of solvent acting alone (QB)) was 6250 µg/mL and the “Yellowing at RT For 1 month” value [1, 4] was “No yellowing”. The MIC (S. aureus (ATCC 6538); Staphylococcus aureus, ATCC6538, read-out: Solvent (B): MIC of solvent acting alone (QB)) was 12500 µg/mL.

With CCCCC(O)CO (stereo not shown) [1,2hexanediol] the “Yellowing at RT For 1 month” value [1, 6] was “Yellow in 9 days”.

In the case of Phenethyl ethanol, the “% of DHA soluble” value [2, 5] is reported as 8% and the “Yellowing at RT For 1 month” value [1] is reported as “Yellow on day one”.

In the case of CO[C@H]1CO[C@H]2[C@@H]1OC[C@H]2OC [Dimethyl isosorbide], the “Solvent (B): MIC of solvent acting alone (QB)” value (from here on “Solvent (B): MIC”) (E. coli (ATCC 8739)) is reported as 12500 ppm, the “% of DHA soluble” value ([2]; DHA in the named aprotic solvent (Table 8)) is reported as 8-10% and the “Solvent (B): MIC” value [3] is reported as 3125 ppm. For the same compound, the “Solvent (B): MIC” value (S. aureus (ATCC 6538)) was 12500 ppm.

For Water, the “Yellowing at RT For 1 month” value ([1]; DHA in Water, pH 4) was “No yellowing” and the “Yellowing at RT For 1 month” value ([1]; DHA in Water, pH 8) was “Slight yellowing”.

For CCCCCCC(O)CO (stereo not shown) [0.5% octanediol], the “Preservative Efficacy Test count, Bacterial Mixture, Days 2” value (Bacterial Mixture; day 2) was under 10, the “Preservative Efficacy Test count, Bacterial Mixture, Days 7” value (Bacterial Mixture; day 7) was under 10 and the “Preservative Efficacy Test count, Bacterial Mixture, Days 14” value (Bacterial Mixture; day 14) was under 10. For the same compound, the “Preservative Efficacy Test count, Bacterial Mixture, Days 21” value (Bacterial Mixture; day 21) was under 10, the “Preservative Efficacy Test count, Bacterial Mixture, Days 28” value (Bacterial Mixture; day 28) was under 10 and the “Preservative Efficacy Test count, Mold Mixture, Days 2” value (Mold Mixture; day 2) was 2.10E+04. For the same compound, the “Preservative Efficacy Test count, Mold Mixture, Days 7” value (Mold Mixture; day 7) was 1.80E+04, the “Preservative Efficacy Test count, Mold Mixture, Days 14” value (Mold Mixture; day 14) was 4.40E+03 and the “Preservative Efficacy Test count, Mold Mixture, Days 21” value (Mold Mixture; day 21) was 4.30E+03. For the same compound, the “Preservative Efficacy Test count, Mold Mixture, Days 28” value (Mold Mixture; day 28) was 5.00E+04, the “Preservative Efficacy Test count, S. aureus, Days 2” value (S. aureus; day 2) was 4.00E+01 and the “Preservative Efficacy Test count, S. aureus, Days 7” value (S. aureus; day 7) was under 10. The “Preservative Efficacy Test count, S. aureus, Days 14” value (S. aureus; day 14) was under 10, the “Preservative Efficacy Test count, S. aureus, Days 21” value (S. aureus; day 21) was under 10 and the “Preservative Efficacy Test count, S. aureus, Days 28” value (S. aureus; day 28) was under 10.

— patent US11224222B2, “Synergistic compositions of dehydroacetic acid and methods for reducing yellowing in various end-user compositions” (ISP Investments LLC, priority 2015, dated 2022)
